Data taken from patent US9708314B2, “Heterocyclic amide compound” (NISSAN CHEMICAL INDUSTRIES, LTD., priority 2013, dated 2017).

Assays:
Type in all cases: in vivo
[1] = test system: Echinochloa crus-galli var. crus-galli; assay: Test Example 3: herbicidal effect by application to foliage (Wagner pot, water depth 0.1-0.5 cm); conditions: Nineteenth Table; application to foliage; application herbicide amount 320 g/ha
How it was run: (§1)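 Plants are raised 14 days from seed in flooded-surface Wagner pots at 25–30 °C, sprayed on stems and leaves with diluted emulsion at a predetermined rate, and rated three weeks on using a 0–5 herbicidal-ratio scale (5 ≥90%).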

[2] = test system: Leptochloa chinensis; assay: as above; conditions: Nineteenth Table; application to foliage; application herbicide amount 320 g/ha
How it was run: as §1

[3] = test system: Glycine max; assay: Test Example 4: effect on crop by application to foliage (diluvial soil, plastic box); conditions: application to foliage; for d: effect on crop, Glycine max: application herbicide amount 320 g/ha; for effect on crop, c (Glycine max): 320 g/ha
How it was run: (§2)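 Read-out is a 0–5 visual grade of herbicidal ratio (5: ≥90%, almost withered; 0: ≤5%) taken three weeks after treatment. Compound was applied as a diluted emulsion to stem and leaf parts of 14-day greenhouse-grown plants (25° C. to 30° C.) at rates expressed as g/ha.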

[4] = test system: Brassica campestris L.; assay: as above; conditions: application to foliage; for g: effect on crop, Brassica campestris L.: application herbicide amount 320 g/ha; for effect on crop, g (Brassica campestris L.): 320 g/ha
How it was run: as §2

[5] = test system: directly sowed Oryza sativa; assay: as above; conditions: application to foliage; for b: effect on crop, directly sowed Oryza sativa: application herbicide amount 320 g/ha; for effect on crop, d (directly sowed Oryza sativa): 320 g/ha
How it was run: as §2

[6] = test system: Triticum aestivum; assay: as above; conditions: application to foliage; for e: effect on crop, Triticum aestivum: application herbicide amount 320 g/ha; for effect on crop, e (Triticum aestivum): 320 g/ha
How it was run: as §2

[7] = test system: Beta vulgaris ssp. vulgaris; assay: as above; conditions: application to foliage; for f: effect on crop, Beta vulgaris ssp. vulgaris: application herbicide amount 320 g/ha; for effect on crop, f (Beta vulgaris ssp. vulgaris): 320 g/ha
How it was run: as §2

[8] = test system: Zea mays; assay: as above; conditions: application to foliage; for c: effect on crop, Zea mays: application herbicide amount 320 g/ha; for effect on crop, b (Zea mays): 320 g/ha
How it was run: as §2

[9] = test system: Amaranthus retroflexus; assay: Test Example 4: herbicidal effect by application to foliage (diluvial soil, plastic box); conditions: application to foliage; for N: herbicidal effect on Amaranthus retroflexus: application herbicide amount 320 g/ha; for herbicidal effect, N (Amaranthus retroflexus): 320 g/ha
How it was run: as §2

[10] = test system: Lolium multiflorum Lam.; assay: as above; conditions: application to foliage; for K: herbicidal effect on Lolium multiflorum Lam.: application herbicide amount 320 g/ha; for herbicidal effect, K (Lolium multiflorum Lam.): 320 g/ha
How it was run: as §2

[11] = test system: Echinochloa crus-galli var. crus-galli; assay: as above; conditions: application to foliage; for H: herbicidal effect on Echinochloa crus-galli var. crus-galli: application herbicide amount 320 g/ha; for herbicidal effect, H (Echinochloa crus-galli var. crus-galli): 320 g/ha
How it was run: as §2

[12] = test system: Setaria viridis; assay: as above; conditions: application to foliage; for G: herbicidal effect on Setaria viridis: application herbicide amount 320 g/ha; for herbicidal effect, G (Setaria viridis): 320 g/ha
How it was run: as §2

[13] = test system: Alopecurus myosuroides; assay: as above; conditions: application to foliage; for J: herbicidal effect on Alopecurus myosuroides: application herbicide amount 320 g/ha; for herbicidal effect, J (Alopecurus myosuroides): 320 g/ha
How it was run: as §2

[14] = test system: Abutilon theophrasti; assay: as above; conditions: application to foliage; for M: herbicidal effect on Abutilon theophrasti: application herbicide amount 320 g/ha; for herbicidal effect, M (Abutilon theophrasti): 320 g/ha
How it was run: as §2

[15] = test system: Digitaria ciliaris; assay: as above; conditions: application to foliage; for F: herbicidal effect on Digitaria ciliaris: application herbicide amount 320 g/ha; for herbicidal effect, F (Digitaria ciliaris): 320 g/ha
How it was run: as §2

[16] = test system: Avena fatua; assay: as above; conditions: application to foliage; for I: herbicidal effect on Avena fatua: application herbicide amount 320 g/ha; for herbicidal effect, I (Avena fatua): 320 g/ha
How it was run: as §2

[17] = test system: Apera spica-venti.; assay: as above; conditions: application to foliage; for L: herbicidal effect on Apera spica-venti.: application herbicide amount 320 g/ha; for herbicidal effect, L (Apera spica-venti.): 320 g/ha
How it was run: as §2

[18] = test system: Stellaria media; assay: as above; conditions: application to foliage; for P: herbicidal effect on Stellaria media: application herbicide amount 320 g/ha; for herbicidal effect, P (Stellaria media): 320 g/ha
How it was run: as §2

[19] = test system: Chenopodium album; assay: as above; conditions: application to foliage; for O: herbicidal effect on Chenopodium album: application herbicide amount 320 g/ha; for herbicidal effect, O (Chenopodium album): 320 g/ha
How it was run: as §2

[20] = test system: Veronica persica; assay: as above; conditions: application to foliage; for R: herbicidal effect on Veronica persica: application herbicide amount 320 g/ha; for herbicidal effect, R (Veronica persica): 320 g/ha
How it was run: as §2

[21] = test system: Galium spurium; assay: as above; conditions: application to foliage; for Q: herbicidal effect on Galium spurium: application herbicide amount 320 g/ha; for herbicidal effect, Q (Galium spurium): 320 g/ha
How it was run: as §2

| Structure (SMILES) | H (herbicidal effect grade) [1] | D (herbicidal effect grade) [2] | d: effect on crop, Glycine max [3] | g: effect on crop, Brassica campestris L. [4] | b: effect on crop, directly sowed Oryza sativa [5] | e: effect on crop, Triticum aestivum [6] | f: effect on crop, Beta vulgaris ssp. vulgaris [7] | c: effect on crop, Zea mays [8] | N: herbicidal effect on Amaranthus retroflexus [9] | K: herbicidal effect on Lolium multiflorum Lam. [10] | H: herbicidal effect on Echinochloa crus-galli var. crus-galli [11] | G: herbicidal effect on Setaria viridis [12] | J: herbicidal effect on Alopecurus myosuroides [13] | M: herbicidal effect on Abutilon theophrasti [14] | F: herbicidal effect on Digitaria ciliaris [15] | I: herbicidal effect on Avena fatua [16] | L: herbicidal effect on Apera spica-venti. [17] | P: herbicidal effect on Stellaria media [18] | O: herbicidal effect on Chenopodium album [19] | R: herbicidal effect on Veronica persica [20] | other results |
| --- | --- | --- | --- | --- | --- | --- | --- | --- | --- | --- | --- | --- | --- | --- | --- | --- | --- | --- | --- | --- | --- |
| Cc1nnc(NC(=O)c2ccc(C(F)(F)F)n3c(CC#N)nnc23)o1 [1-168] | 4 (Herbicidal ratio of 70% or more and less than 90%) | 3 (Herbicidal ratio of 40% or more and less than 70%) | 3 (Herbicidal ratio of 40% or more and less than 70%) | 3 (Herbicidal ratio of 40% or more and less than 70%) | 3 (Herbicidal ratio of 40% or more and less than 70%) | 1 (Herbicidal ratio of 5% or more and less than 20%) | 5 (Herbicidal ratio of 90% or more (almost completely withered)) | 0 (Herbicidal ratio of 5% or less (almost no effect)) | 3 (Herbicidal ratio of 40% or more and less than 70%) | 1 (Herbicidal ratio of 5% or more and less than 20%) | 5 (Herbicidal ratio of 90% or more (almost completely withered)) | 4 (Herbicidal ratio of 70% or more and less than 90%) | 0 (Herbicidal ratio of 5% or less (almost no effect)) | 3 (Herbicidal ratio of 40% or more and less than 70%) | 5 (Herbicidal ratio of 90% or more (almost completely withered)) | 1 (Herbicidal ratio of 5% or more and less than 20%) | 0 (Herbicidal ratio of 5% or less (almost no effect)) | 5 (Herbicidal ratio of 90% or more (almost completely withered)) | 5 (Herbicidal ratio of 90% or more (almost completely withered)) | 5 (Herbicidal ratio of 90% or more (almost completely withered)) | Q: herbicidal effect on Galium spurium [21]: 1 (Herbicidal ratio of 5% or more and less than 20%) |
| COCCc1nnc2c(C(=O)Nc3nnc(C)o3)ccc(C(F)(F)F)n12 [1-173] | 5 (Herbicidal ratio of 90% or more (almost completely withered)) | 4 (Herbicidal ratio of 70% or more and less than 90%) | 4 (Herbicidal ratio of 70% or more and less than 90%) | 4 (Herbicidal ratio of 70% or more and less than 90%) | 3 (Herbicidal ratio of 40% or more and less than 70%) | 1 (Herbicidal ratio of 5% or more and less than 20%) | 5 (Herbicidal ratio of 90% or more (almost completely withered)) | 0 (Herbicidal ratio of 5% or less (almost no effect)) | 5 (Herbicidal ratio of 90% or more (almost completely withered)) | 1 (Herbicidal ratio of 5% or more and less than 20%) | 5 (Herbicidal ratio of 90% or more (almost completely withered)) | 3 (Herbicidal ratio of 40% or more and less than 70%) | 1 (Herbicidal ratio of 5% or more and less than 20%) | 5 (Herbicidal ratio of 90% or more (almost completely withered)) | 4 (Herbicidal ratio of 70% or more and less than 90%) | 2 (Herbicidal ratio of 20% or more and less than 40%) | 1 (Herbicidal ratio of 5% or more and less than 20%) | 5 (Herbicidal ratio of 90% or more (almost completely withered)) | 5 (Herbicidal ratio of 90% or more (almost completely withered)) | 4 (Herbicidal ratio of 70% or more and less than 90%) | Q: herbicidal effect on Galium spurium [21]: 4 (Herbicidal ratio of 70% or more and less than 90%) |
| Cn1nnnc1NC(=O)c1ccc(C(F)(F)F)n2c(SC3CCCC3)nnc12 [2-096] | 0 (Herbicidal ratio of 5% or less (almost no effect)) | 0 (Herbicidal ratio of 5% or less (almost no effect)) |  |  |  |  |  |  |  |  |  |  |  |  |  |  |  |  |  |  | effect on crop, c (Glycine max) [3]: 0 (Herbicidal ratio of 5% or less (almost no effect)); effect on crop, g (Brassica campestris L.) [4]: 0 (Herbicidal ratio of 5% or less (almost no effect)); effect on crop, d (directly sowed Oryza sativa) [5]: 3 (Herbicidal ratio of 40% or more and less than 70%); effect on crop, e (Triticum aestivum) [6]: 0 (Herbicidal ratio of 5% or less (almost no effect)); effect on crop, f (Beta vulgaris ssp. vulgaris) [7]: 5 (Herbicidal ratio of 90% or more (almost completely withered)); effect on crop, b (Zea mays) [8]: 0 (Herbicidal ratio of 5% or less (almost no effect)); herbicidal effect, N (Amaranthus retroflexus) [9]: 5 (Herbicidal ratio of 90% or more (almost completely withered)); herbicidal effect, K (Lolium multiflorum Lam.) [10]: 0 (Herbicidal ratio of 5% or less (almost no effect)); herbicidal effect, H (Echinochloa crus-galli var. crus-galli) [11]: 5 (Herbicidal ratio of 90% or more (almost completely withered)); herbicidal effect, G (Setaria viridis) [12]: 4 (Herbicidal ratio of 70% or more and less than 90%); herbicidal effect, J (Alopecurus myosuroides) [13]: 0 (Herbicidal ratio of 5% or less (almost no effect)); herbicidal effect, M (Abutilon theophrasti) [14]: 5 (Herbicidal ratio of 90% or more (almost completely withered)); herbicidal effect, F (Digitaria ciliaris) [15]: 5 (Herbicidal ratio of 90% or more (almost completely withered)); herbicidal effect, I (Avena fatua) [16]: 1 (Herbicidal ratio of 5% or more and less than 20%); herbicidal effect, L (Apera spica-venti.) [17]: 0 (Herbicidal ratio of 5% or less (almost no effect)); herbicidal effect, P (Stellaria media) [18]: 4 (Herbicidal ratio of 70% or more and less than 90%); herbicidal effect, O (Chenopodium album) [19]: 5 (Herbicidal ratio of 90% or more (almost completely withered)); herbicidal effect, R (Veronica persica) [20]: 3 (Herbicidal ratio of 40% or more and less than 70%); herbicidal effect, Q (Galium spurium) [21]: 3 (Herbicidal ratio of 40% or more and less than 70%) |
| Cn1nnnc1NC(=O)c1ccc(C(F)(F)F)n2c(SCc3ccc(Cl)nc3)nnc12 [2-097] | 2 (Herbicidal ratio of 20% or more and less than 40%) | 3 (Herbicidal ratio of 40% or more and less than 70%) |  |  |  |  |  |  |  |  |  |  |  |  |  |  |  |  |  |  | effect on crop, c (Glycine max) [3]: 0 (Herbicidal ratio of 5% or less (almost no effect)); effect on crop, g (Brassica campestris L.) [4]: 1 (Herbicidal ratio of 5% or more and less than 20%); effect on crop, d (directly sowed Oryza sativa) [5]: 3 (Herbicidal ratio of 40% or more and less than 70%); effect on crop, e (Triticum aestivum) [6]: 0 (Herbicidal ratio of 5% or less (almost no effect)); effect on crop, f (Beta vulgaris ssp. vulgaris) [7]: 4 (Herbicidal ratio of 70% or more and less than 90%); effect on crop, b (Zea mays) [8]: 0 (Herbicidal ratio of 5% or less (almost no effect)); herbicidal effect, N (Amaranthus retroflexus) [9]: 3 (Herbicidal ratio of 40% or more and less than 70%); herbicidal effect, K (Lolium multiflorum Lam.) [10]: 1 (Herbicidal ratio of 5% or more and less than 20%); herbicidal effect, H (Echinochloa crus-galli var. crus-galli) [11]: 5 (Herbicidal ratio of 90% or more (almost completely withered)); herbicidal effect, G (Setaria viridis) [12]: 3 (Herbicidal ratio of 40% or more and less than 70%); herbicidal effect, J (Alopecurus myosuroides) [13]: 1 (Herbicidal ratio of 5% or more and less than 20%); herbicidal effect, M (Abutilon theophrasti) [14]: 3 (Herbicidal ratio of 40% or more and less than 70%); herbicidal effect, F (Digitaria ciliaris) [15]: 4 (Herbicidal ratio of 70% or more and less than 90%); herbicidal effect, I (Avena fatua) [16]: 2 (Herbicidal ratio of 20% or more and less than 40%); herbicidal effect, L (Apera spica-venti.) [17]: 2 (Herbicidal ratio of 20% or more and less than 40%); herbicidal effect, P (Stellaria media) [18]: 4 (Herbicidal ratio of 70% or more and less than 90%); herbicidal effect, O (Chenopodium album) [19]: 5 (Herbicidal ratio of 90% or more (almost completely withered)); herbicidal effect, R (Veronica persica) [20]: 4 (Herbicidal ratio of 70% or more and less than 90%); herbicidal effect, Q (Galium spurium) [21]: 3 (Herbicidal ratio of 40% or more and less than 70%) |
